The text below walks through data of patent publication JP2013032353A, “ロキソプロフェン含有医薬組成物” (priority 2011, dated 2013).

A short description of data set [1]: Interaction study: storage of loxoprofen sodium hydrate/drug mixtures and of the single drugs at 60 °C (Test Examples 1, 4, 7, 10, 13, 16, 18, 20, 21, 23, 25, 27). The data set is classed as physicochemical. The conditions noted are these: stored 1 week in glass bottle (3K), evaluated at start, 1 day, 3 days (2 days in Test Examples 10 and 16) and 1 week.
Data set [2] has as its system gastric mucosal injury caused by loxoprofen [ロキソプロフェンに起因する胃粘膜障害]. The data set can be described thus: Suppression of loxoprofen-induced gastrointestinal injury in rats (Test Examples 3, 6, 9, 12, 15, 24). The data set is classed as in vivo, rat (Wistar). As to conditions: rat, 1 h before loxoprofen sodium hydrate 120 mg/kg p.o., result in words.

Take `CN1CCC[C@@H]1CCO[C@](C)(c1ccccc1)c1ccc(Cl)cc1` [クレマスチンフマル酸塩]: the “state in the glass bottle on storage” value in data set [1] is recorded as “変化は生じなかった”. For the same compound, the “reduction of loxoprofen-induced gastric mucosal injury” value (“reduction” for short) in data set [2] (oral, 1 mg/5 mL/kg) is on record as “軽減した”.
`COc1ccccc1OCC(O)CO` (centres unmarked) [グアイフェネシン]: the “state in the glass bottle on storage” value in data set [1] was “変化は生じなかった”.
Still for that read-out and setting: as for `CC(C(=O)[O-])c1ccc(CC2CCCC2=O)cc1.O.O.[Na+]` (centres unmarked) [ロキソプロフェンナトリウム水和物, Monosodium 2-[4-[(2-oxocyclopentyl)methyl]phenyl]propanoate dihydrate], the entry is “変化は生じなかった”; as for `COc1ccc2c(c1)[C@]13CCCC[C@@H]1[C@H](C2)N(C)CC3` [デキストロメトルファン臭化水素酸塩水和物], “変化は生じなかった”.
Turning to `C[C@@H]([C@H](O)c1ccccc1)N(C)C.Cl` [dl−メチルエフェドリン塩酸塩], the “state in the glass bottle on storage” value in data set [1] is “変化は生じなかった”. The “reduction” value in data set [2] (oral, 20, 60, 180 mg/5 mL/kg) is “軽減した”.
Regarding `Nc1c(Br)cc(Br)cc1CN[C@H]1CC[C@H](O)CC1` [アンブロキソール塩酸塩], the “state in the glass bottle on storage” value in data set [1] is reported as “変化は生じなかった”.
On the same count and under the same terms, the same measure for `CN(Cc1cc(Br)cc(Br)c1N)C1CCCCC1` [ブロムヘキシン塩酸塩]: “変化は生じなかった”.
`CN1CCC(OC(c2ccccc2)c2ccccc2)CC1` [ジフェニルピラリン塩酸塩]: the “state in the glass bottle on storage” value in data set [1] is reported as “変化は生じなかった”. The “reduction” value in data set [2] (oral, 3, 10 mg/5 mL/kg) is “軽減した”.
Regarding `COc1ccc2c3c1O[C@H]1[C@@H](O)CC[C@H]4[C@@H](C2)N(C)CC[C@@]341` [ジヒドロコデインリン酸塩], in data set [2] (oral, 8, 24, 72 mg/5 mL/kg, n=6), the “reduction” value is given as “軽減した”.
As to “リゾチーム塩酸塩: リゾチーム塩酸塩 (lysozyme hydrochloride)”, the “state in the glass bottle on storage” value in data set [1] is reported as “変化は生じなかった”.
On to `CN(C)CC[C@@H](c1ccc(Cl)cc1)c1ccccn1.O=C(O)/C=C\C(=O)O` [クロルフェニラミンマレイン酸塩, d−クロルフェニラミンマレイン酸塩], for which the “state in the glass bottle on storage” value in data set [1] is recorded as “変化は生じなかった”. In addition, the “reduction” value in data set [2] (oral, 5, 40 mg/5 mL/kg) is given as “軽減した”.
With `CN(C)CCOC(c1ccc(Cl)cc1)c1ccccn1` (centres unmarked) [カルビノキサミンマレイン酸塩], the “state in the glass bottle on storage” value in data set [1] is “変化は生じなかった”. The “reduction” value in data set [2] (oral, 0.75, 75 mg/5 mL/kg) is recorded as “軽減した”.
